# Reference: patent US20240116921A1, “LACTAM (HETERO)[…] DERIVATIVES AS INHIBITORS OF ERBB2” (EnLiven Therapeutics, Inc., priority 2020, published 2024)
# Counter-ions that a name gives are not always drawn.
# Legend:
# [1] = biological target: Ba/F3 ERBB2 A775_G776insYVMA (Homo sapiens, UniProt P04626, DUP772-775, cells depend on it); experiment: Cell viability assay, Ba/F3 ERBB2 A775_G776insYVMA; type: cell-based, mouse; details: Ba/F3 ERBB2 YVMA cells, cell viability, 72 hours, CellTiter Glo; Table B5; read-out: Ba/F3 ERBB2 YVMA, IC50
# Sequence of Ba/F3 ERBB2 A775_G776insYVMA (P04626 with tags, fused parts or gaps DUP772-775): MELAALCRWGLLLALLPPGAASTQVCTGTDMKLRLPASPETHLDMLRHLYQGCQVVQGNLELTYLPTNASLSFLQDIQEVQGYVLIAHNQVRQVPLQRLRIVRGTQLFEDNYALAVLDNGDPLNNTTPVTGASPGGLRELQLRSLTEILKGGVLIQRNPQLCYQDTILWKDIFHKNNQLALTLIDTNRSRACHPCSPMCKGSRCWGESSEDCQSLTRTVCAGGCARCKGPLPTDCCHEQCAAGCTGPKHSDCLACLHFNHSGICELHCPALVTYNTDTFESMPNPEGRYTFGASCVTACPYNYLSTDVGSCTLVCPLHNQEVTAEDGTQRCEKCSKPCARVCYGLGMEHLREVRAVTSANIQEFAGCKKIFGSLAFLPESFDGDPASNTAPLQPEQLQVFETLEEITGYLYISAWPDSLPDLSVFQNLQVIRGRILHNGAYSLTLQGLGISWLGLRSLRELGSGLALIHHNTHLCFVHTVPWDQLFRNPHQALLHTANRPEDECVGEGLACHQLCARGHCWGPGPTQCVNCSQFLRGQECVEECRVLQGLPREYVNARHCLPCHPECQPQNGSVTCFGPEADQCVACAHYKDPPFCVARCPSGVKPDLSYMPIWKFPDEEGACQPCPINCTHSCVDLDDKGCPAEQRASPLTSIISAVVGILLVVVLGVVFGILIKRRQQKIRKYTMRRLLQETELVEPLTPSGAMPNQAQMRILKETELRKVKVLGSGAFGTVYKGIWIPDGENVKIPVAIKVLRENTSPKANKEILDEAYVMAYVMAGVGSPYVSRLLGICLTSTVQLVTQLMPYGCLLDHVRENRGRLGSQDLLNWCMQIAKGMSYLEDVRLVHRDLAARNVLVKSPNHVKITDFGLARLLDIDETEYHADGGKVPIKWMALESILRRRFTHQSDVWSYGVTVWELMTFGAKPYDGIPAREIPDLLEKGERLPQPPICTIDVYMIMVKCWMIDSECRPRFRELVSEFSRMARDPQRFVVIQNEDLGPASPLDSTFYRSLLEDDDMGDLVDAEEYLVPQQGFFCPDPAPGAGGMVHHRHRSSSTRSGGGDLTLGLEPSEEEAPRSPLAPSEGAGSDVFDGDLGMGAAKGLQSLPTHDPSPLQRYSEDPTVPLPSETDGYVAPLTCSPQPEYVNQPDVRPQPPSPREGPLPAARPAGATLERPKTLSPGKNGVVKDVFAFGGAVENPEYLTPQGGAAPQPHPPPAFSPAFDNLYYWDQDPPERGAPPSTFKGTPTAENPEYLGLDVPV
# Experimental: Cells were treated with compounds, and cell viability was measured as a metric of kinase inhibition.
# The Ba/F3 cell line is IL-3-dependent mouse cell line derived from the C3H mouse strain. Ba/F3 cell lines were engineered to express human ERBB2 or EGFR kinases, rendering the cells IL-3 independent. The lines were generated via retroviral transduction utilizing a Moloney murine leukemia virus (MMLV) promoter, and constructs are stably integrated into the cell genome. The sequences of the ERBB2 and EGFR genes used were NCBI Reference Sequences NM_004448.3 and NM_005228.3, respectively.
# Similarly, Ba/F3 cell lines engineered to express EGFR, ERBB2, or ERBB2 mutants were grown, harvested, counted and seeded at 3000 cells per well in 96-well plates. A subset of wells contained media only (low control, “LC”).
# Table B1 provides the growth media and number of cells seeded per well for the each cell line.
# Plates were placed in a 37° C., 5% CO2 incubator for 72 hours. Plates were then removed from the incubator and equilibrated for 15 minutes at room temperature. 40 μl of CellTiter Glo reagent (Promega) was added to measure the relative level of metabolically active cells by quantifying intracellular ATP concentrations. Plates were incubated for 30 minutes at room temperature, and luminescence was measured. […] Graphical curves were fitted using a nonlinear regression model with a sigmoidal dose response.
# [2] = biological target: T1, phosphorylated ERBB2 (pERBB2) (Homo sapiens, UniProt P04626); experiment: Detection of phosphorylated ERBB2 (pERBB2) by ELISA in BT-474 cells; type: cell-based; details: four hours incubation
# T1 construct: endogenous in cells; host or cells: BT-474
# T1 sequence (P04626 23-1255): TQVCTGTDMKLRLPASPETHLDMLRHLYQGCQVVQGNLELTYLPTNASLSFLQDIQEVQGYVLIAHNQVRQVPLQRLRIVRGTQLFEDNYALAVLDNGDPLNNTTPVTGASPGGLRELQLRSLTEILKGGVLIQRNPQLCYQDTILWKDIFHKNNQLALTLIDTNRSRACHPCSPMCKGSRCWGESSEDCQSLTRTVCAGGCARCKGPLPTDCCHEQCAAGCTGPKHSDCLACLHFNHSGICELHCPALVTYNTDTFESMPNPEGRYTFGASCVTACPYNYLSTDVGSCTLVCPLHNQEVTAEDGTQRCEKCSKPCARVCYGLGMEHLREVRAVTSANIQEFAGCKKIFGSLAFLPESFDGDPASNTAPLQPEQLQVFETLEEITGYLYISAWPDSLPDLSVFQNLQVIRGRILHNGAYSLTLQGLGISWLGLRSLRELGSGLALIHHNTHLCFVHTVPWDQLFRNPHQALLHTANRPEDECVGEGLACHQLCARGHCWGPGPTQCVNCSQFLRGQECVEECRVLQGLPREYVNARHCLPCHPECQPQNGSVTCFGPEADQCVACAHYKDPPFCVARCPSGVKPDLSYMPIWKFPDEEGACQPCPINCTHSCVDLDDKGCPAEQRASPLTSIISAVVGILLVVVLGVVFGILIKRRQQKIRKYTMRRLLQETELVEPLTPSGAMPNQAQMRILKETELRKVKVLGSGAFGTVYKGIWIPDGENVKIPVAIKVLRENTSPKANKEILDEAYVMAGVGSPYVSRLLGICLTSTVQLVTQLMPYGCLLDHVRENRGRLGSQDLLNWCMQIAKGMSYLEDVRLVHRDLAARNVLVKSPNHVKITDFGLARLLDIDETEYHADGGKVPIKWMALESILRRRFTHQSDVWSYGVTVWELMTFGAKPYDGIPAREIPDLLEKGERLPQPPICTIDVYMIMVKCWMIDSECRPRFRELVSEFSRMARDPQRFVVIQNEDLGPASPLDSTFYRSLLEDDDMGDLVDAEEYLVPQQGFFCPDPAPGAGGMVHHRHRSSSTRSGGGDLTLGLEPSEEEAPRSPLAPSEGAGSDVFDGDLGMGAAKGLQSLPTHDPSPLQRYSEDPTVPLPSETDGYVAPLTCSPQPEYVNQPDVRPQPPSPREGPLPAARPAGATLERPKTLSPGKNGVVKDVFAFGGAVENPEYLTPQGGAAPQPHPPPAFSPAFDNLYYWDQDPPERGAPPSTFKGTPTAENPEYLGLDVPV
# Experimental: BT-474 cells were seeded into a 96-well at 2.0*10^4 cells/100 μl/well.
# Compounds were dissolved and serially diluted in DMSO. The compounds were then were added, mixed, and incubated for four hours at 37° C., 5% CO2. Compounds were added using four-fold dilutions at final concentrations ranging from 10 μM to 0.01 nM.
# Following the four hour incubation with compounds, cell lysates were prepared.
# Plates were centrifuged for 5 min at 3000 RPM, and supernatant was removed from each well. Cells were washed 3 times by resuspension in 150 μl PBS, followed by centrifugation and removal of the supernatant, as above. […] Cells were incubated with lysis buffer for 1 hour at 4° C., and then stored at −80° C.
# Enzyme-linked immunosorbent assays (ELISA) were performed to measure phosphorylated ERBB2 levels. […] The next day, plates were washed with PBS+0.05% Tween20 (PBST). 150 μl of 5% BSA blocking solution was added for 1 hour at room temperature, with shaking. Plates were washed with PBST. Cell lysates were thawed and 100 μl of lysate was added to the ELISA plate. The plates were incubated for 2 hours at room temperature, with shaking. […] Plates were incubated for 1 hour at room temperature, with shaking. Plates were then washed with PBST, and 100 μl TMB substrate solution (R&D Systems, cat #DY999) was added. Plate were incubated in the dark for 20 minutes at room temperature. 50 μl of Stop solution (R&D Systems, cat #DY994) (50 μl) was added to each well and mixed.
# Optical density at 450 nm was read on an EnSpire plate reader (Perkin Elmer). The remaining kinase activity by calculated using the following formula: % Relative activity=100×(A450sample−A450LC)/(A450HC−A450LC). The low and high control values (“LC” and “HC”) were generated from lysate from wells without cells or with cells treated with 0.1% DMSO, respectively.
# [3] = biological target: T2, phosphorylated EGFR (pEGFR) (Homo sapiens, UniProt P00533); experiment: Detection of phosphorylated EGFR (pEGFR) in EGF-stimulated A431 cells; type: cell-based; details: A431 cells (10% FBS), 4 hours incubation, EGF 30 ng/mL 10 minutes, AlphaLISA
# T2 construct: performed to measure phosphorylated EGFR levels using A431 cells (10% FBS); endogenous in cells; host or cells: A431
# T2 sequence (P00533 25-1210): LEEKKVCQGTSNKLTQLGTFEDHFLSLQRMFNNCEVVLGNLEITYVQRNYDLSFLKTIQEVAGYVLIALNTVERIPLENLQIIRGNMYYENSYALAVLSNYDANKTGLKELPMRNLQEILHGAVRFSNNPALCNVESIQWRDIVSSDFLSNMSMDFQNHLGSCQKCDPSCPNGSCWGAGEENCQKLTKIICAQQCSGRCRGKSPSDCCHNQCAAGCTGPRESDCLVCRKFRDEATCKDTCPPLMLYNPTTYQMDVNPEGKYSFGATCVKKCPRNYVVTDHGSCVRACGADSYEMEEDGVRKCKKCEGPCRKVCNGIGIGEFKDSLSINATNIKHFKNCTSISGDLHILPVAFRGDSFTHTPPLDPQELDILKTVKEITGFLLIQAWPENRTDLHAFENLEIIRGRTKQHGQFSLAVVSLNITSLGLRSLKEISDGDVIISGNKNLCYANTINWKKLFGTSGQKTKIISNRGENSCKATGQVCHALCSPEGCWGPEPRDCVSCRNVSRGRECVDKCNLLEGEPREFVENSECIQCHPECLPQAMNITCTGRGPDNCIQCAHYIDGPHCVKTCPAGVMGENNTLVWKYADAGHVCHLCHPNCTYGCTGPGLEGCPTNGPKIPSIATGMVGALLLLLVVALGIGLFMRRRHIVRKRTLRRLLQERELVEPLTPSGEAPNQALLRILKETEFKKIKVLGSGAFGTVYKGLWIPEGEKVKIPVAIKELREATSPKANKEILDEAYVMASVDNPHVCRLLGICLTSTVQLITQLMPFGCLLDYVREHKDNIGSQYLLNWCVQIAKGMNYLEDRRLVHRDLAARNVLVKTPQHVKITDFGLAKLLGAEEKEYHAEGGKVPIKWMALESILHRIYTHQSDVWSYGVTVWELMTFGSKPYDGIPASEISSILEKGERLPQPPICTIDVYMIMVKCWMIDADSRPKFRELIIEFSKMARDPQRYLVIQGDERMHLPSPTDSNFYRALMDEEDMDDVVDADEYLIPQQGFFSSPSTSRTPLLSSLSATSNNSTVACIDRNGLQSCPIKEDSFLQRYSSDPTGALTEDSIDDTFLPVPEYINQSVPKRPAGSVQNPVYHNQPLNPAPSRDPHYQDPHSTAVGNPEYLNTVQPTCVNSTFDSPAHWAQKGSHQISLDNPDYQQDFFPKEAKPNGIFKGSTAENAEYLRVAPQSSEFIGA
# Experimental: Enzyme-linked immunosorbent assays (ELISA) were performed to measure phosphorylated EGFR levels using A431 cells (10% FBS). A431 (1.0*10^4 cells/40 μl/well) cells were seeded in 384 well. Compounds were dissolved in DMSO, serially diluted in DMSO and then were added, mixed, and incubated for 4 hours at 37° C., 5% CO2. Following the 4-hours incubation, cells were stimulated for 10 minutes with EGF (Invitrogen, cat #PHG0311) at a final concentration of 30 ng/mL in the incubator. The media was aspirated and cells were lysed in 10 μL lysis buffer with protease and phosphatase inhibitors (PerkinElmer, cat #ALSU-PEGFR-A50K). The plates were placed on a shaker for 5 minutes and then incubated for 30 min at 4° C. for complete lysis. The lysate was transferred to an Optiplate (Perkin Elmer, cat #6007290).
# Acceptor mix (PerkinElmer, cat #ALSU-PEGFR-A50K) was prepared just before use and 5 μL was dispensed to all the wells, followed by a 1.5-2 h incubation at room temperature in dark. The donor mix (PerkinElmer, cat #ALSU-PEGFR-A50K) was prepared under low light conditions prior to use and […] of donor mix was added to all the wells under subdued lighting or green filters. The plates were placed on a shaker for 5 min, sealed, and incubated overnight at room temperature in dark. Plates were read on the Envision (PerkinElmer) using standard AlphaLISA settings.
# The percentage of inhibition on EGFR phosphorylation was calculated following equation: % Inhibition=100×(LumHC−LumSample)/(LumHC−LumLC). The low and high controls (LC/HC) are generated from lysate from wells with cells treated with DMSO or […] Staurosporine (BioAustralis, cat #BIA-S1086), […]. IC50 values were calculated by fitting the Curve using XLfit (v5.3.1.3), equation 201: Y=Bottom+(Top−Bottom)/(1+10^((Log IC50−X)*HillSlope)).
SMILES,IC50 [2] [µM],IC50 [3] [µM],GI50 [1] [µM]
"CCn1cnc2cc(Oc3ccc(Nc4ncnc5ccc(N6CC/C(=C\CN(C)C)C6=O)nc45)cc3C)ccc21 [Compound 65, (3E)-3-[2-(dimethylamino)ethylidene]-1-[4-({4-[(1-ethyl-1,3-benzodiazol-5-yl)oxy]-3-methylphenyl}amino)pyrido[3,2-d]pyrimidin-6-yl]pyrrolidin-2-one]",0.128,> 10,0.0364
"CC1CN(c2cc3c(Nc4ccc(Oc5ccc6c(c5)nnn6C)cc4)ncnc3cn2)C(=O)/C1=C/CN(C)C (single isomer, unassigned) [Compound 137]",4.11,> 10,0.473
"Cc1cc(Nc2ncnc3ccc(N4CC(C)/C(=C\CN(C)C)C4=O)nc23)ccc1Oc1ccc2c(c1)ncn2C (single isomer, unassigned; enantiomer 2) [Example S58, Enantiomer # 2, (3E)-3-[2-(dimethylamino)ethylidene]-4-methyl-1-[4-({3-methyl-4-[(1-methyl-1,3-benzodiazol-5-yl)oxy]phenyl}amino)pyrido[3,2-d]pyrimidin-6-yl]pyrrolidin-2-one hydrochloride Enantiomer 2]",0.0442,> 10,0.0133
"CC1CN(c2cc3c(Nc4cc(F)c(Oc5ccc6c(c5)nnn6C)cc4F)ncnc3cn2)C(=O)/C1=C/CN(C)C (single isomer, unassigned) [Example S125, Enantiomer #2, (3E)-1-[4-({2,5-difluoro-4-[(1-methyl-1,2,3-benzotriazol-5-yl)oxy]phenyl}amino)pyrido[3,4-d]pyrimidin-6-yl]-3-[2-(dimethylamino)ethylidene]-4-methylpyrrolidin-2-one]",0.076,2.3,0.027
"Cc1c(Oc2ccc3c(c2)ncn3C)ccc(Nc2ncnc3cnc(N4CC/C(=C\CN(C)C)C4=O)cc23)c1F [Compound 77, (3E)-3-[2-(dimethylamino)ethylidene]-1-[4-({2-fluoro-3-methyl-4-[(1-methyl-1,3-benzodiazol-5-yl)oxy]phenyl}amino)pyrido[3,4-d]pyrimidin-6-yl]pyrrolidin-2-one]",0.0184,7.49,0.00361
"[2H]C([2H])([2H])n1nnc2cc(Oc3ccc(Nc4ncnc5ccc(N6CC/C(=C\CN(C)C)C6=O)nc45)cc3C)ccc21 [Compound 117, (E)-3-(2-(dimethylamino)ethylidene)-1-(4-((3-methyl-4-((1-(methyl-d3)-1H-benzo[d][1,2,3]triazol-5-yl)oxy)phenyl)amino)pyrido[3,2-d]pyrimidin-6-yl)pyrrolidin-2-one]",0.0192,> 10,0.002
"Cc1cc(Nc2ncnc3cnc(N4CC(C)C(=CCN(C)C)C4=O)cc23)ccc1Oc1ccc2c(c1)ncn2C (single isomer, unassigned) [Example S97, Enantiomer #2, 3-[2-(dimethylamino)ethylidene]-4-methyl-1-[4-({3-methyl-4-[(1-methyl-1,3-benzodiazol-5-yl)oxy]phenyl}amino)pyrido[3,4-d]pyrimidin-6-yl]pyrrolidin-2-one]",0.021,0.49,0.00412
"C=C1CCN(c2ccc3ncnc(Nc4ccc(Sc5ccn6ncnc6c5)c(C)c4)c3c2)C1=O [Compound 13, 1-[4-[(3-methyl-4-[[1,2,4]triazolo[1,5-a]pyridin-7-ylsulfanyl]phenyl)amino]quinazolin-6-yl]-3-methylidenepyrrolidin-2-one]",0.0125,0.571,

# Continued, in another order:
IC50 [2] [µM],IC50 [3] [µM],SMILES,GI50 [1] [µM]
0.0117,1.46,"Cc1cc(Nc2ncnc3ccc(N4CC/C(=C\CCN(C)C)C4=O)cc23)ccc1Oc1ccn2ncnc2c1 [Compound 26, (3E)-3-[3-(dimethylamino)propylidene]-1-{4-[(3-methyl-4-{[1,2,4]triazolo[1,5-a]pyridin-7-yloxy}phenyl)amino]quinazolin-6-yl}pyrrolidin-2-one]",0.00861
0.0232,6.15,"C=C1CCN(c2ccc3ncnc(Nc4ccc(Oc5ccn6ncnc6c5)c(C)c4)c3n2)C1=O [Compound 23, 1-{4-[(3-methyl-4-{[1,2,4]triazolo[1,5-a]pyridin-7-yloxy}phenyl)amino]pyrido[3,2-d]pyrimidin-6-yl}-3-methylidenepyrrolidin-2-one]",
0.012,0.586,"C=C1C(=O)N(c2ccc3ncnc(Nc4ccc(Oc5ccn6ncnc6c5)c(C)c4)c3c2)C[C@H]1C [Compound 20, (S)-1-(4-(4-([1,2,4]triazolo[1,5-a]pyridin-7-yloxy)-3-methylphenylamino)quinazolin-6-yl)-4-methyl-3-methylenepyrrolidin-2-one]",
0.0223,1.98,"C=C1C(=O)N(c2ccc3ncnc(Nc4ccc(Oc5ccn6ncnc6c5)c(C)c4)c3c2)C2CC12 (single isomer, unassigned) [Example S21, Enantiomer # 2, 2-{4-[(3-methyl-4-{[1,2,4]triazolo[1,5-a]pyridin-7-yloxy}phenyl)amino]quinazolin-6-yl}-4-methylidene-2-azabicyclo[3.1.0]hexan-3-one]",
0.0208,0.538,"C=C1C(=O)N(c2ccc3ncnc(Nc4ccc(Oc5ccn6ncnc6c5)c(C)c4)c3c2)C2CC12 (single isomer, unassigned) [Example S21, Enantiomer # 1, 2-{4-[(3-methyl-4-{[1,2,4]triazolo[1,5-a]pyridin-7-yloxy}phenyl)amino]quinazolin-6-yl}-4-methylidene-2-azabicyclo[3.1.0]hexan-3-one]",
0.0197,> 10,"Cc1cc(Nc2ncnc3ccc(N4CCC(=CCN(C)C)C4=O)cc23)ccc1Oc1ccn2ncnc2c1 (single isomer, unassigned) [Compound 17, (Z)-3-[2-(dimethylamino)ethylidene]-1-[4-[(3-methyl-4-[[1,2,4]triazolo[1,5-a]pyridin-7-yloxy]phenyl)amino]quinazolin-6-yl]pyrrolidin-2-one]",
0.0252,5.63,"C=C1C(=O)N(c2ccc3ncnc(Nc4ccc(Oc5ccn6ncnc6c5)c(C)c4)c3c2)C[C@@H]1C [Compound 19, (R)-1-(4-((4-([1,2,4]triazolo[1,5-a]pyridin-7-yloxy)-3-methylphenyl)amino)quinazolin-6-yl)-4-methyl-3-methylenepyrrolidin-2-one]",
